Columns and labels:
Details in all cases: 72 h
Caco-2 [1] = assay: cell viability relative to DMSO; higher = less toxic
Calu-3 [2] = assay: as above
HepG2 [3] = assay: as above
U2OS [4] = assay: as above
Vero E6 [5] = assay: as above
Caco-2 [6] = assay: relative viability EC50 (midpoint between 100% and the lowest measured viability); higher = less toxic
HepG2 [7] = assay: as above
U2OS [8] = assay: as above
Vero E6 [9] = assay: as above
Caco-2 [10] = assay: drug sensitivity score (DSS) for viability; higher = more toxic; extreme values may be limits of the assay
Calu-3 [11] = assay: as above
HepG2 [12] = assay: as above
U2OS [13] = assay: as above
Vero E6 [14] = assay: as above
Calu-3 [15] = assay: relative viability EC50 (midpoint between 100% and the lowest measured viability); higher = less toxic

SMILES	cell viability (Caco-2 [1]; 1 nM) [%]	cell viability (Caco-2 [1]; 10 nM) [%]	cell viability (Caco-2 [1]; 100 nM) [%]	cell viability (Caco-2 [1]; 1000 nM) [%]	cell viability (Caco-2 [1]; 10000 nM) [%]	cell viability (Calu-3 [2]; 1 nM) [%]	cell viability (Calu-3 [2]; 10 nM) [%]	cell viability (Calu-3 [2]; 100 nM) [%]	cell viability (Calu-3 [2]; 1000 nM) [%]	cell viability (Calu-3 [2]; 10000 nM) [%]	cell viability (HepG2 [3]; 1 nM) [%]	cell viability (HepG2 [3]; 10 nM) [%]	cell viability (HepG2 [3]; 100 nM) [%]	cell viability (HepG2 [3]; 1000 nM) [%]	cell viability (HepG2 [3]; 10000 nM) [%]	cell viability (U2OS [4]; 1 nM) [%]	cell viability (U2OS [4]; 10 nM) [%]	cell viability (U2OS [4]; 100 nM) [%]	cell viability (U2OS [4]; 1000 nM) [%]	cell viability (U2OS [4]; 10000 nM) [%]	cell viability (Vero E6 [5]; 1 nM) [%]	cell viability (Vero E6 [5]; 10 nM) [%]	cell viability (Vero E6 [5]; 100 nM) [%]	cell viability (Vero E6 [5]; 1000 nM) [%]	cell viability (Vero E6 [5]; 10000 nM) [%]	relative viability EC50 (Caco-2 [6]) [µM]	relative viability EC50 (HepG2 [7]) [µM]	relative viability EC50 (U2OS [8]) [µM]	relative viability EC50 (Vero E6 [9]) [µM]	drug sensitivity score (Caco-2 [10])	drug sensitivity score (Calu-3 [11])	drug sensitivity score (HepG2 [12])	drug sensitivity score (U2OS [13])	drug sensitivity score (Vero E6 [14])	relative viability EC50 (Calu-3 [15]) [µM]
Cc1ccc(CCCO)c(NCc2ccc3nc(NCCCN4CCOCC4)n(Cc4nc(C)ccc4O)c3c2)c1	101	97.7	97.6	101	90	115	96.4	104	93.6	74.8	89.5	100	103	109	89.1	98.1	97.1	97.6	96.5	95.1	99.6	92.7	97.7	102	102	> 10	> 10	> 10	> 10	0	1.9	0	0	0	
Cn1c(-c2ccccc2)nnc1S(C)(=O)=O	93	85.8	103	103	103						97.4	99.1	99.1	93.9	94.5	99.4	96.9	96.4	99.3	103	89.6	92.9	99.3	94.9	105	> 10	> 10	> 10	> 10	0		0	0	0	
Cc1ccc([N+](=O)[O-])cc1O [2-methyl-5-nitrophenol]	96.9	105	101	94.3	95.3						106	91	99.4	100	102	108	96	101	96.1	102	99.9	94.4	94.3	98.6	96.2	> 10	> 10	> 10	> 10	0		0	0	0	
O=Cc1ccc(CO)o1 [5-HMF]						96.6	98.2	97.3	94.5	104						99.6	99.8	104	102	106	103	99.9	99.7	105	97.3			> 10	> 10		0		0	0	> 10
Nc1c2ccccc2nc2ccccc12 [9-aminoacridine]	103	115	96.2	134	60.5	94.4	92.4	105	110	64.6	93.5	96.5	99.8	88.1	5.5	94.6	98	95	99.8	34.9	106	104	108	86.5	20.3		2.14	3.14	1.89	1.1	1.2	7.2	3.6	6.6	
O=C(N[C@H](Cc1ccccc1)C(=O)O)c1sc2cc(F)ccc2c1Cl [CU-CPT-4a]	99.3	102	91.1	93.5	102						107	106	92.7	90.1	100	97.2	97.1	94.4	98.2	96.7	107	103	102	99.1	104	> 10	> 10	> 10	> 10	0		0	0	0	
CCCCC(=O)NCCc1c(Cc2ccccc2)[nH]c2ccccc12 [DH-97]	102	101	96.8	92.3	96						90.8	100	100	105	103	100	94.7	99.9	95.1	96.7	102	98.7	99.8	97	93.8	> 10	> 10	> 10	> 10	0		0	0	0	
